Data from ChEMBL document CHEMBL5376026, “Design, synthesis, and antiproliferative evaluation of novel dehydroabietic acid-1,2,3-triazole-oxazolidinone hybrids” (RSC Med Chem, 2024).
Activity calls are given as the source filed them. The calls are words filed in the database; no cut-off is given here.

Experiments:
MGC-803 [1] = assay: Induction of cell cycle arrest in human MGC-803 cells assessed as accumulation of cells at G0/G1 phase at 5 uM incubated for 48 hrs by propidium iodide staining based flow cytometry (reference value: 50.67%); type: functional
[2] = Cytotoxicity against human LO2 cells assessed as reduction in cell viability incubated for 48 hrs by MTT assay; type: toxicity, cell-based, L02
MGC-803 [3] = assay: Induction of cell cycle arrest in human MGC-803 cells assessed as accumulation of cells at G2/M phase at 10 uM incubated for 48 hrs by propidium iodide staining based flow cytometry (reference value: 16.81%); type: functional
MGC-803 [4] = assay: Induction of cell cycle arrest in human MGC-803 cells assessed as accumulation of cells at G0/G1 phase at 10 uM incubated for 48 hrs by propidium iodide staining based flow cytometry (reference value: 50.67%); type: functional
MGC-803 [5] = assay: Induction of cell cycle arrest in human MGC-803 cells assessed as accumulation of cells at G0/G1 phase at 2.5 uM incubated for 48 hrs by propidium iodide staining based flow cytometry (reference value: 50.67%); type: functional
MGC-803 [6] = assay: Induction of apoptosis in human MGC-803 cells assessed as increase in apoptotic nuclei incubated for 48 hrs by Hoechst 33258 staining based fluorescence microscopic analysis; type: functional, cell-based; conditions: dose 2.5-10 µM
MGC-803 [7] = assay: Induction of apoptosis in human MGC-803 cells assessed as necrotic cells at 5 uM incubated for 48 hrs by Annexin-V FITC and PI staining based flow cytometry (reference value: 0.68%); type: functional
MGC-803 [8] = assay: Induction of apoptosis in human MGC-803 cells assessed as apoptosis rate at 5 uM incubated for 48 hrs by Annexin-V FITC and PI staining based flow cytometry (reference value: 0.42%); type: functional
MGC-803 [9] = assay: Induction of apoptosis in human MGC-803 cells assessed as late apoptotic cells at 10 uM incubated for 48 hrs by Annexin-V FITC and PI staining based flow cytometry (reference value: 0.81%); type: functional
MGC-803 [10] = assay: Induction of apoptosis in human MGC-803 cells assessed as viable cells at 10 uM incubated for 48 hrs by Annexin-V FITC and PI staining based flow cytometry (reference value: 98.3%); type: functional; conditions: read-out: Activity
MGC-803 [11] = assay: Anticancer activity against human MGC-803 cells assessed as inhibition of cell growth incubated for 48 hrs by MTT assay; type: functional, cell-based; conditions: MGC-803, 48 h
MGC-803 [12] = assay: Induction of apoptosis in human MGC-803 cells assessed as early apoptotic cells at 2.5 uM incubated for 48 hrs by Annexin-V FITC and PI staining based flow cytometry (reference value: 0.20%); type: functional
MGC-803 [13] = assay: Induction of apoptosis in human MGC-803 cells assessed as viable cells at 5 uM incubated for 48 hrs by Annexin-V FITC and PI staining based flow cytometry (reference value: 98.3%); type: functional; conditions: read-out: Activity
MGC-803 [14] = assay: Induction of apoptosis in human MGC-803 cells assessed as chromatin condensation incubated for 48 hrs by Hoechst 33258 staining based fluorescence microscopic analysis; type: functional, cell-based; conditions: dose 2.5-10 µM
MGC-803 [15] = assay: Induction of cell cycle arrest in human MGC-803 cells assessed as accumulation of cells at S phase at 5 uM incubated for 48 hrs by propidium iodide staining based flow cytometry (reference value: 33.22%); type: functional
MGC-803 [16] = assay: Induction of apoptosis in human MGC-803 cells assessed as necrotic cells at 10 uM incubated for 48 hrs by Annexin-V FITC and PI staining based flow cytometry (reference value: 0.68%); type: functional
MGC-803 [17] = assay: Induction of cell cycle arrest in human MGC-803 cells assessed as accumulation of cells at S phase at 2.5 uM incubated for 48 hrs by propidium iodide staining based flow cytometry (reference value: 33.22%); type: functional
MGC-803 [18] = assay: Induction of apoptosis in human MGC-803 cells assessed as apoptosis rate at 10 uM incubated for 48 hrs by Annexin-V FITC and PI staining based flow cytometry (reference value: 0.42%); type: functional
MGC-803 [19] = assay: Induction of cell cycle arrest in human MGC-803 cells assessed as accumulation of cells at G2/M phase at 2.5 uM incubated for 48 hrs by propidium iodide staining based flow cytometry (reference value: 16.81%); type: functional
MGC-803 [20] = assay: Induction of apoptosis in human MGC-803 cells assessed as viable cells at 2.5 uM incubated for 48 hrs by Annexin-V FITC and PI staining based flow cytometry (reference value: 98.3%); type: functional; conditions: read-out: Activity
MGC-803 [21] = assay: Induction of cell cycle arrest in human MGC-803 cells assessed as accumulation of cells at G2/M phase at 5 uM incubated for 48 hrs by propidium iodide staining based flow cytometry (reference value: 16.81%); type: functional
MGC-803 [22] = assay: Induction of apoptosis in human MGC-803 cells assessed as early apoptotic cells at 5 uM incubated for 48 hrs by Annexin-V FITC and PI staining based flow cytometry (reference value: 0.20%); type: functional
MGC-803 [23] = assay: Induction of apoptosis in human MGC-803 cells assessed as late apoptotic cells at 2.5 uM incubated for 48 hrs by Annexin-V FITC and PI staining based flow cytometry (reference value: 0.81%); type: functional
MGC-803 [24] = assay: Induction of reactive oxygen species generation in human MGC-803 cells at 2.5 to 10 uM incubated for 48 hrs by DCFH-DA staining based fluorescence microscopic analysis; type: functional, cell-based; conditions: dose 2.5-10 µM
MGC-803 [25] = assay: Induction of apoptosis in human MGC-803 cells assessed as early apoptotic cells at 10 uM incubated for 48 hrs by Annexin-V FITC and PI staining based flow cytometry (reference value: 0.20%); type: functional
MGC-803 [26] = assay: Induction of apoptosis in human MGC-803 cells assessed as late apoptotic cells at 5 uM incubated for 48 hrs by Annexin-V FITC and PI staining based flow cytometry (reference value: 0.81%); type: functional
HeLa = assay: Anticancer activity against human HeLa cells assessed as inhibition of cell growth incubated for 48 hrs by MTT assay; type: functional, cell-based
MGC-803 [27] = assay: Induction of cell cycle arrest in human MGC-803 cells assessed as accumulation of cells at S phase at 10 uM incubated for 48 hrs by propidium iodide staining based flow cytometry (reference value: 33.22%); type: functional
MGC-803 [28] = assay: Induction of mitochondrial membrane potential loss in human MGC-803 cells at 2.5 uM incubated for 10 to 24 hrs by JC-1 staining based fluorescence microscopic assay; type: functional, cell-based; conditions: time 10-24 hrs
MGC-803 [29] = assay: Induction of apoptosis in human MGC-803 cells assessed as necrotic cells at 2.5 uM incubated for 48 hrs by Annexin-V FITC and PI staining based flow cytometry (reference value: 0.68%); type: functional
MGC-803 [30] = assay: Induction of apoptosis in human MGC-803 cells assessed as apoptosis rate at 2.5 uM incubated for 48 hrs by Annexin-V FITC and PI staining based flow cytometry (reference value: 0.42%); type: functional
T-24 = assay: Anticancer activity against human T-24 cells assessed as inhibition of cell growth incubated for 48 hrs by MTT assay; type: functional, cell-based; conditions: T-24, 48 h
HepG2 = assay: Anticancer activity against human HepG2 cells assessed as inhibition of cell growth incubated for 48 hrs by MTT assay; type: functional, cell-based; conditions: HepG2, 48 h

CC(C)c1ccc2c(c1)CC[C@H]1[C@](C)(C(=O)OCc3cn(CC4CN(c5ccc(Br)cc5)C(=O)O4)nn3)CCC[C@]21C (stereo partly drawn)
Activity (MGC-803 [1]): 54.14%
IC50 at 48 h [2]: 40 µM
Activity (MGC-803 [3]): 11.23%
Activity (MGC-803 [4]): 55.64%
Activity (MGC-803 [5]): 52.14%
Activity (MGC-803 [6]): Dose-Dependent Effect
Activity (MGC-803 [7]): 2.9%
Activity (MGC-803 [8]): 8.87%
Activity (MGC-803 [9]): 2.64%
viability at 10 µM (MGC-803 [10]): 14%
IC50 (MGC-803 [11]): 3.18 µM
Activity (MGC-803 [12]): 4.89%
viability at 5 µM (MGC-803 [13]): 68.8%
Activity (MGC-803 [14]): Dose-Dependent Effect
Activity (MGC-803 [15]): 33.63%
Activity (MGC-803 [16]): 1.25%
Activity (MGC-803 [17]): 34.79%
Activity (MGC-803 [18]): 33.34%
Activity (MGC-803 [19]): 13.7%
viability at 2.5 µM (MGC-803 [20]): 87.5%
Activity (MGC-803 [21]): 12.52%
Activity (MGC-803 [22]): 16.2%
Activity (MGC-803 [23]): 6.25%
Activity (MGC-803 [24]): Active
Activity (MGC-803 [25]): 82.1%
Activity (MGC-803 [26]): 12%
IC50 (HeLa): 25.3 µM
Activity (MGC-803 [27]): 33.22%
Activity (MGC-803 [28]): Active
Activity (MGC-803 [29]): 1.32%
Activity (MGC-803 [30]): 6%
IC50 (T-24): 14.2 µM
IC50 (HepG2): 11.7 µM
